Experimental data taken from patent publication US20210060033A1, “ORALLY ADMINISTERED COMBINATIONS OF BETA-LACTAM ANTIBIOTICS AND AVIBACTAM DERIVATIVES FOR TREATING BACTERIAL INFECTIONS” (priority 2019, published 2021).
≈ marks a conversion by molar mass, not a printed value. Where “and” joins values, the source holds several entries; their conditions need not be identical. Identical values can stand only once. Counter-ions that a name gives are not always drawn. Like-named read-outs stand apart in the source and are kept apart here.

Assays:
E. cloacae 0060 [1] = assay: Agar MIC, E. cloacae 0060; format: cell-based; settings: Enterobacter cloacae; E. cloacae 0060 (cAmpC)
E. coli 470-21711 [2] = assay: Microbroth MIC, E. coli 470-21711; format: cell-based; settings: Escherichia coli, 47021711; E. coli 470-21711 (CTX-M-15)
K. pneumoniae 19701 [3] = assay: Agar MIC, K. pneumoniae 19701; format: cell-based, Klebsiella pneumoniae
E. coli ATCC 35218 [4] = assay: Microbroth MIC, E. coli ATCC 35218; format: cell-based; settings: Escherichia coli, ATCC35218; E. coli ATCC 35218 (TEM-1 Quality Control Strain)
E. coli 470-21711 [5] = assay: Agar MIC, E. coli 470-21711; format: cell-based; settings: Escherichia coli, 47021711; E. coli 470-21711 (CTX-M-15)
K. pneumoniae 79 [6] = assay: Microbroth MIC, K. pneumoniae 79; format: cell-based, Klebsiella pneumoniae
K. pneumoniae 27144 [7] = assay: Agar MIC, K. pneumoniae 27144; format: cell-based; settings: Klebsiella pneumoniae; K. pneumoniae 27144 (CTX-M-15, OXA-1, OXA-48, SHV-11, TEM-1)
K. pneumoniae 15160 [8] = assay: Agar MIC, K. pneumoniae 15160; format: cell-based; settings: Klebsiella pneumoniae; K. pneumoniae 15160 (CTX-M-15, CTX-M-2, OXA-10, OXA-1, SHV-11, TEM-1)
E. cloacae 4184 [9] = assay: Microbroth MIC, E. cloacae 4184; format: cell-based; settings: Enterobacter cloacae; E. cloacae 4184 (De-repressed AmpC)
E. coli 136-4643 [10] = assay: Agar MIC, E. coli 136-4643; format: cell-based; settings: Escherichia coli, 1364643; E. coli 136-4643 (CTX-M-15)
K. pneumoniae 908 [11] = assay: Microbroth MIC, K. pneumoniae 908; format: cell-based, Klebsiella pneumoniae
K. pneumoniae 4582 [12] = assay: Microbroth MIC, K. pneumoniae 4582; format: cell-based, Klebsiella pneumoniae
E. coli ATCC 25922 [13] = assay: Microbroth MIC, E. coli ATCC 25922; format: cell-based; settings: Escherichia coli, ATCC25922
[14] = system: K. pneumoniae ATCC BAA-1705; assay: Microbroth MIC, K. pneumoniae ATCC BAA-1705; format: cell-based; settings: Klebsiella pneumoniae
E. cloacae 0060 [15] = assay: Microbroth MIC, E. cloacae 0060; format: cell-based; settings: Enterobacter cloacae; E. cloacae 0060 (cAmpC)
E. cloacae 0002 [16] = assay: Agar MIC, E. cloacae 0002; format: cell-based, Enterobacter cloacae
E. cloacae 0065 [17] = assay: Agar MIC, E. cloacae 0065; format: cell-based; settings: Enterobacter cloacae; E. cloacae 0065 (cAmpC)
[18] = cited from earlier work
E. coli ATCC 25922 [19] = assay: Agar MIC, E. coli ATCC 25922; format: cell-based; settings: Escherichia coli, ATCC25922; E. coli ATCC 25922 (Wildtype)
K. pneumoniae 79 [20] = assay: Agar MIC, K. pneumoniae 79; format: cell-based, Klebsiella pneumoniae
E. cloacae 4182 [21] = assay: Agar MIC, E. cloacae 4182; format: cell-based; settings: Enterobacter cloacae; E. cloacae 4182 (De-repressed AmpC)
E. coli 136-4643 [22] = assay: Microbroth MIC, E. coli 136-4643; format: cell-based; settings: Escherichia coli, 1364643; E. coli 136-4643 (CTX-M-15)
E. coli ATCC 35218 [23] = assay: Agar MIC, E. coli ATCC 35218; format: cell-based; settings: Escherichia coli, ATCC35218; E. coli ATCC 35218 (TEM-1 Quality Control Strain)
K. pneumoniae 27144 [24] = assay: Microbroth MIC, K. pneumoniae 27144; format: cell-based; settings: Klebsiella pneumoniae; K. pneumoniae 27144 (CTX-M-15, OXA-1, OXA-48, SHV-11, TEM-1)
K. pneumoniae 19701 [25] = assay: Microbroth MIC, K. pneumoniae 19701; format: cell-based, Klebsiella pneumoniae
E. cloacae 4182 [26] = assay: Microbroth MIC, E. cloacae 4182; format: cell-based; settings: Enterobacter cloacae; E. cloacae 4182 (De-repressed AmpC)
K. pneumoniae 908 [27] = assay: Agar MIC, K. pneumoniae 908; format: cell-based, Klebsiella pneumoniae
E. cloacae 0065 [28] = assay: Microbroth MIC, E. cloacae 0065; format: cell-based; settings: Enterobacter cloacae; E. cloacae 0065 (cAmpC)
E. cloacae 4184 [29] = assay: Agar MIC, E. cloacae 4184; format: cell-based; settings: Enterobacter cloacae; E. cloacae 4184 (De-repressed AmpC)
K. pneumoniae 700603 [30] = assay: Microbroth MIC, K. pneumoniae 700603; format: cell-based; settings: Klebsiella pneumoniae; K. pneumoniae 700603 (SHV-18)
K. pneumoniae 4582 [31] = assay: Agar MIC, K. pneumoniae 4582; format: cell-based, Klebsiella pneumoniae
E. cloacae 0002 [32] = assay: Microbroth MIC, E. cloacae 0002; format: cell-based, Enterobacter cloacae
K. pneumoniae 700603 [33] = assay: Agar MIC, K. pneumoniae 700603; format: cell-based; settings: Klebsiella pneumoniae; K. pneumoniae 700603 (SHV-18)
K. pneumoniae 15160 [34] = assay: Microbroth MIC, K. pneumoniae 15160; format: cell-based; settings: Klebsiella pneumoniae; K. pneumoniae 15160 (CTX-M-15, CTX-M-2, OXA-10, OXA-1, SHV-11, TEM-1)
K. pneumoniae 19701 [35] = assay: One-compartment in vitro infection (chemostat) model, K. pneumoniae 19701; format: cell-based, Klebsiella pneumoniae; settings: for Average Log10 CFU/mL (+/− Range of Data), 5 × Ceftibuten + Avibactam at 4 mg/L MIC: Ceftibuten 400 mg q8h
[36] = system: ESBL-, KPC-, and OXA-positive isolates; format: cell-based, Enterobacteriaceae; settings: avibactam 4 μg/mL
[37] = E. coli ATCC 25922 (Wildtype), read-out: Microbroth MIC

Compound | MIC (E. cloacae 0060 [1]) | MIC (E. coli 470-21711 [2]) | MIC (E. coli ATCC 35218 [4]) | MIC (E. coli 470-21711 [5]) | MIC (K. pneumoniae 27144 [7]) | MIC (K. pneumoniae 15160 [8]) | MIC (E. cloacae 4184 [9]) | MIC (E. coli 136-4643 [10]) | MIC (E. coli ATCC 25922 [13]; [37]) | MIC (E. cloacae 0060 [15]) | MIC (E. cloacae 0065 [17]) | MIC (E. coli ATCC 25922 [19]) | MIC (E. cloacae 4182 [21]) | MIC (E. coli 136-4643 [22]) | MIC (E. coli ATCC 35218 [23]) | MIC (K. pneumoniae 27144 [24]) | MIC (E. cloacae 4182 [26]) | MIC (E. cloacae 0065 [28]) | MIC (E. cloacae 4184 [29]) | MIC (K. pneumoniae 700603 [30]) | also measured
NC(=O)[C@@H]1CC[C@@H]2CN1C(=O)N2OS(=O)(=O)O [avibactam, [2S,5R]-2-carbamoyl-7-oxo-1,6-diazabicyclo[3.2.1]octan-6-yl hydrogen sulfate] | 16 µg/mL | 16 µg/mL | 16 µg/mL | 8 µg/mL | 64 µg/mL | 16 µg/mL | 32 µg/mL | 8 µg/mL | 16 µg/mL | 32 µg/mL | 8 µg/mL | 8 µg/mL | 16 µg/mL | 256 µg/mL | 8 µg/mL | 512 µg/mL | 32 µg/mL | 16 µg/mL | 16 µg/mL | 64 µg/mL | MIC (K. pneumoniae 19701 [3]; Klebsiella pneumoniae, K. pneumoniae 19701 (KPC-2), read-out: agar MIC): 32 µg/mL; Microbroth MIC (K. pneumoniae 79 [6]; K. pneumoniae 79 (KPC-3, FOX-5, TEM-1 SHV-11), listed as AVI): 16 mg/L and 32 mg/L; MIC (K. pneumoniae 908 [11]; Klebsiella pneumoniae, K. pneumoniae 908 (KPC-2, SHV-27, TEM-1), read-out: Microbroth MIC): 128 µg/mL; Microbroth MIC (K. pneumoniae 4582 [12]; K. pneumoniae 4582 (KPC-3), listed as AVI): 64 mg/L and 32 mg/L; MIC ([14]; ATCCBAA1705, K. pneumoniae ATCC BAA-1705 (KPC-2), read-out: Microbroth MIC): 16 µg/mL; MIC (E. cloacae 0002 [16]; Enterobacter cloacae, E. cloacae 0002 (KPC-3, OXA-9, TEM-1A), read-out: agar MIC): 16 µg/mL; plasma protein binding ([18]; assumed for free-drug profiles): 6.95%; MIC (K. pneumoniae 79 [20]; Klebsiella pneumoniae, K. pneumoniae 79 (KPC-3, FOX-5, TEM-1 SHV-11), read-out: agar MIC): 16 µg/mL; MIC (K. pneumoniae 19701 [25]; Klebsiella pneumoniae, K. pneumoniae 19701 (KPC-2), read-out: Microbroth MIC): > 512 µg/mL; MIC (K. pneumoniae 908 [27]; Klebsiella pneumoniae, K. pneumoniae 908 (KPC-2, SHV-27, TEM-1), read-out: agar MIC): 128 µg/mL; MIC (K. pneumoniae 4582 [31]; Klebsiella pneumoniae, K. pneumoniae 4582 (KPC-3), read-out: agar MIC): 8 µg/mL; MIC (E. cloacae 0002 [32]; Enterobacter cloacae, E. cloacae 0002 (KPC-3, OXA-9, TEM-1A), read-out: Microbroth MIC): 32 µg/mL; MIC (K. pneumoniae 700603 [33]): 64 µg/mL
Nc1nc(/C(=C/CC(=O)O)C(=O)N[C@@H]2C(=O)N3C(C(=O)O)=CCS[C@H]23)cs1 [ceftibuten, (6R,7R)-7-((Z)-2-(2-amino-4-thiazolyl)-4-carboxycrotonamido)-8-oxo-5-thia-1-azabicyclo(4.2.0)oct-2-ene-2-carboxylic acid] | > 64 µg/mL | 64 µg/mL (≈ 156 µM) | 0.125 µg/mL (≈ 0.305 µM) | 32 µg/mL (≈ 78 µM) | 32 µg/mL (≈ 78 µM) | 32 µg/mL (≈ 78 µM) | > 64 µg/mL | 8 µg/mL (≈ 19.5 µM) | 0.5 µg/mL (≈ 1.22 µM) | > 64 µg/mL | > 64 µg/mL | 0.5 µg/mL (≈ 1.22 µM) | > 64 µg/mL | 32 µg/mL (≈ 78 µM) | 0.125 µg/mL (≈ 0.305 µM) | 64 µg/mL (≈ 156 µM) | > 64 µg/mL | > 64 µg/mL | > 64 µg/mL | 0.5 µg/mL (≈ 1.22 µM) | MIC (K. pneumoniae 19701 [3]; Klebsiella pneumoniae, 19701, read-out: agar MIC): 32 µg/mL (≈ 78 µM); MIC (K. pneumoniae 79 [6]; Klebsiella pneumoniae, 79, read-out: Microbroth MIC): > 64 µg/mL; MIC (K. pneumoniae 15160 [34]): 64 µg/mL (≈ 156 µM); MIC (K. pneumoniae 908 [11]; Klebsiella pneumoniae, 908, read-out: Microbroth MIC): 32 µg/mL (≈ 78 µM); MIC (K. pneumoniae 4582 [12]; Klebsiella pneumoniae, 4582, read-out: Microbroth MIC): 32 µg/mL (≈ 78 µM); MIC (E. coli ATCC 25922 [13]; E. coli ATCC 25922 (Wild type), read-out: MIC): 0.5 µg/mL (≈ 1.22 µM); MIC ([14]; ATCCBAA1705, read-out: Microbroth MIC): 16 µg/mL (≈ 39 µM); Average Log10 CFU/mL (+/− Range of Data), 5 × Ceftibuten + Avibactam at 4 mg/L MIC (K. pneumoniae 19701 [35]; 0 h): 0 (0) Log10 CFU/mL; Average Log10 CFU/mL (+/− Range of Data), 5 × Ceftibuten + Avibactam at 4 mg/L MIC (K. pneumoniae 19701 [35]; 24 h): 1.67 (1.17) Log10 CFU/mL; bacterial burden response over 24 hours (K. pneumoniae 19701 [35]; ceftibuten 200 mg q8h monotherapy): no activity; bacterial burden response over 24 hours (K. pneumoniae 19701 [35]; ceftibuten 400 mg q8h monotherapy): did not reduce the bacterial burden; reduction of MIC90 values by addition of avibactam [36]: at least five doubling dilutions; MIC (E. cloacae 0002 [16]; Enterobacter cloacae, 0002, read-out: agar MIC): 16 µg/mL (≈ 39 µM); plasma protein binding ([18]; plasma): 65.0%; MIC (K. pneumoniae 79 [20]; Klebsiella pneumoniae, 79, read-out: agar MIC): 64 µg/mL (≈ 156 µM); MIC (K. pneumoniae 19701 [25]; Klebsiella pneumoniae, 19701, read-out: Microbroth MIC): 64 µg/mL (≈ 156 µM); MIC (K. pneumoniae 908 [27]; Klebsiella pneumoniae, 908, read-out: agar MIC): 32 µg/mL (≈ 78 µM); MIC (K. pneumoniae 4582 [31]; Klebsiella pneumoniae, 4582, read-out: agar MIC): 16 µg/mL (≈ 39 µM); MIC (E. cloacae 0002 [32]; Enterobacter cloacae, 0002, read-out: Microbroth MIC): 32 µg/mL (≈ 78 µM); MIC (K. pneumoniae 700603 [33]): 0.5 µg/mL (≈ 1.22 µM)
